Source: patent US20260325533A1, “CDK INHIBITOR COMPOUNDS” (ALEKSIA THERAPEUTICS, INC., priority 2023, published 2026)
Like-named read-outs stand apart in the source and are kept apart here.

How the values were obtained:
Format in all cases: biochemical
[1] = biological target: CDK2/CCNE1 (Homo sapiens, UniProt P24941); assay: CDK2 homogeneous time-resolved fluorescence (HTRF) kinase assay; conditions: CDK2/CCNE
Summary of the method: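 IC50 derived from 11-point, half-log dilutions (usually top 10 μM) of compound, 1% DMSO. Kinase (3 nM CDK2/CCNE1) was preincubated with compound 20 min, then phosphorylated 50 nM ULight-4E-BP1 peptide at 1 mM ATP for 60 min, 23 °C. Europium-antibody TR-FRET read after EDTA stop.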

[2] = biological target: CDK1/CCNB1 (Homo sapiens, UniProt P06493); assay: CDK1 homogeneous time-resolved fluorescence (HTRF) kinase assay; conditions: CDK1/CCNB
Sequence of CDK1/CCNB1 (P06493 whole entry): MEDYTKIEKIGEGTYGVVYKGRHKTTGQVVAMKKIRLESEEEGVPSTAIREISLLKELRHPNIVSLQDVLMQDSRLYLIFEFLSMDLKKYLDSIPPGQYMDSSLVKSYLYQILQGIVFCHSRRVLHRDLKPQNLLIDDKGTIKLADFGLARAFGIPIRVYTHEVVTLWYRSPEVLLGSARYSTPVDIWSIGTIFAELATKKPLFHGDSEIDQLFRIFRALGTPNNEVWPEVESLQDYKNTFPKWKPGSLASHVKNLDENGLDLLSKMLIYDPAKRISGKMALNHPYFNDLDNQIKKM
Sequence of CDK1/CCNB1 (P14635 whole entry partner): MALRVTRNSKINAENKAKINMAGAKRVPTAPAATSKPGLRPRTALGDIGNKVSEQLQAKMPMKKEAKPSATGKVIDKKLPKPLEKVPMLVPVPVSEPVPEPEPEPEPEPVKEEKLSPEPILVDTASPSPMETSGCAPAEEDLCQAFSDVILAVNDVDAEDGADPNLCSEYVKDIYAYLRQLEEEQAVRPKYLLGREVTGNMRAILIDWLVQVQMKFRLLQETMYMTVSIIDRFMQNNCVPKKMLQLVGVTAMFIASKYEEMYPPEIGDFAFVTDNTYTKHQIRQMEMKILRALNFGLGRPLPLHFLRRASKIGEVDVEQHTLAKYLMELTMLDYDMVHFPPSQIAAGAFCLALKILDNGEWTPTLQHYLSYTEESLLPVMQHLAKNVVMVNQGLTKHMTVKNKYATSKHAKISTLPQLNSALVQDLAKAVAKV
Summary of the method: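 High-ATP (1 mM) HTRF assay with 0.5 nM CDK1/cyclin B1 and 50 nM ULight-4E-BP1 (Thr37/46) substrate, 60 min at 23 °C after 20-min compound preincubation. IC50 values come from dose-response curves.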

[3] = biological target: CDK4/CCND3 (Homo sapiens, UniProt P11802); assay: CDK4 homogeneous time-resolved fluorescence (HTRF) kinase assay; conditions: CDK4/CCND
Sequence of CDK4/CCND3 (P11802 whole entry): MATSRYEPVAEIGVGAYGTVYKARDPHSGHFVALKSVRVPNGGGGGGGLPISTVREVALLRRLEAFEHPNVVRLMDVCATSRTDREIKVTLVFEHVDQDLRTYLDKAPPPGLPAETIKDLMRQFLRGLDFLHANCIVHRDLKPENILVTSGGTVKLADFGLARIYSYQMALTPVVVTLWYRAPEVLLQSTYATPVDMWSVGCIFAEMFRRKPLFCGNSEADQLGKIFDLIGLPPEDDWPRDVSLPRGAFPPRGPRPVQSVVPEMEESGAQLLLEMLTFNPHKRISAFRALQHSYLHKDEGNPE
Sequence of CDK4/CCND3 (P30281 whole entry partner): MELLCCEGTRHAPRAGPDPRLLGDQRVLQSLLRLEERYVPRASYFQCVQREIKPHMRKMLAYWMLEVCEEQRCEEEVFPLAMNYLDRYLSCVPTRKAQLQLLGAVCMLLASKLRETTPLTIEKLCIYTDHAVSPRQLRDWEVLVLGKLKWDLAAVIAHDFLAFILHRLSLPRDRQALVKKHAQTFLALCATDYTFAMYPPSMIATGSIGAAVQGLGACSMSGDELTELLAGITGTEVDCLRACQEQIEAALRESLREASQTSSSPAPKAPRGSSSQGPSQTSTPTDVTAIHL
Summary of the method: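 IC50 values were derived from 11-point half-log dilutions, usually starting at 10 μM. Compound was first held for 20 min at 23 °C with 1.5 nM CDK4/CCND3. 1 mM ATP and 50 nM ULight-eIF4E-BP1 (Thr37/46) substrate were then added for 60 min, and the TR-FRET 665 nm signal was measured after EDTA stop and Eu-anti-phospho-4E-BP1 detection.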

[4] = biological target: CDK6/CCND1 (Homo sapiens, UniProt Q00534); assay: CDK6 homogeneous time-resolved fluorescence (HTRF) kinase assay; conditions: CDK6/CCND
Sequence of CDK6/CCND1 (Q00534 whole entry): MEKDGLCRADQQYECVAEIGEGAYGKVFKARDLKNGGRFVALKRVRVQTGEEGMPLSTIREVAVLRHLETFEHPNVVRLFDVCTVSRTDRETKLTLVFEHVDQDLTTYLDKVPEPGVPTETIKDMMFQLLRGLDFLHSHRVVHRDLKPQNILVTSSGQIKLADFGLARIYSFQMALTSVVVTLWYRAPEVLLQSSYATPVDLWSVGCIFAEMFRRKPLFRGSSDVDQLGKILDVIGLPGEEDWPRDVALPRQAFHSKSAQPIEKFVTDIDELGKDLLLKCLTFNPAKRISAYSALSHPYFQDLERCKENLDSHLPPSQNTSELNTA
Sequence of CDK6/CCND1 (P24385 whole entry partner): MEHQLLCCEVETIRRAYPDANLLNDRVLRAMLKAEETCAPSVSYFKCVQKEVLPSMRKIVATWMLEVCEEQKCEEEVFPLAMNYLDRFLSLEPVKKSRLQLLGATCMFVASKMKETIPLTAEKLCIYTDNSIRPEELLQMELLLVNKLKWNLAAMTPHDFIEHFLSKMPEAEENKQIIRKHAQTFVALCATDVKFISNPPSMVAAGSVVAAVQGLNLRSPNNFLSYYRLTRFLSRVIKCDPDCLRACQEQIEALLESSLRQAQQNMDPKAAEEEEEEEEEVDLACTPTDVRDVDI
Summary of the method: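 Recombinant CDK6/CCND1 (1 nM final) was preincubated with compound for 20 min at 23 °C in HEPES buffer with MgCl2, EGTA, DTT and Tween 20. Kinase reaction then ran 60 min at 23 °C with 1 mM ATP and 50 nM ULight-4E-BP1 (Thr37/46) peptide, and was stopped with EDTA.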

[5] = <25 nM, read-out: CDK2/CCNE IC50 <25 nM
[6] = >250 nM marked x, read-out: CDK1/CCNB IC50 >250 nM
[7] = 25-250 nM marked x, read-out: CDK4/CCND IC50 25-250 nM
[8] = 25-250 nM marked x, read-out: CDK6/CCND IC50 25-250 nM
[9] = <25 nM, read-out: CDK6/CCND IC50 <25 nM
[10] = 25-250 nM marked x, read-out: CDK1/CCNB IC50 25-250 nM
[11] = <25 nM, read-out: CDK4/CCND IC50 <25 nM
[12] = 25-250 nM marked x, read-out: CDK2/CCNE IC50 25-250 nM
[13] = >250 nM marked x, read-out: CDK4/CCND IC50 >250 nM
[14] = >250 nM marked x, read-out: CDK6/CCND IC50 >250 nM

SMILES | IC50 [1, 5] | IC50 [2, 6] | IC50 [3, 7] | IC50 [4, 8] | IC50 [4, 9] | IC50 [2, 10] | IC50 [3, 11] | IC50 [1, 12] | IC50 ([2]; <25 nM, read-out: CDK1/CCNB IC50 <25 nM) | IC50 [3, 13] | IC50 [4, 14]
CS(=O)(=O)N1CCC(Nc2cc3c(-c4ccc5[nH]ncc5c4)nccc3cn2)CC1 [Ex 77, 5-(1H-indazol-5-yl)-N-(1-(methylsulfonyl)piperidin-4-yl)-2,6-naphthyridin-3-amine] | < 25 nM | > 250 nM | 25 to 250 nM | 25 to 250 nM |  |  |  |  |  |  | 
CS(=O)(=O)N1CCC(Nc2cc3c(-c4ccc(CO)cc4)nccc3cn2)CC1 [Ex 78, (4-(7-((1-(methylsulfonyl)piperidin-4-yl)amino)-2,6-naphthyridin-1-yl)phenyl)methanol] | < 25 nM | > 250 nM | 25 to 250 nM |  | < 25 nM |  |  |  |  |  | 
CS(=O)(=O)N1CCC(Nc2cc3c(-c4ccccc4OC(F)(F)F)nccc3cn2)CC1 [Ex 81, N-(1-(methylsulfonyl)piperidin-4-yl)-5-(2-(trifluoromethoxy)phenyl)-2,6-naphthyridin-3-amine] | < 25 nM | > 250 nM | 25 to 250 nM | 25 to 250 nM |  |  |  |  |  |  | 
CS(=O)(=O)N1CCC(Nc2cc3c(-c4cncs4)nccc3cn2)CC1 [Ex 82, N-(1-(methylsulfonyl)piperidin-4-yl)-5-(thiazol-5-yl)-2,6-naphthyridin-3-amine] | < 25 nM | > 250 nM | 25 to 250 nM | 25 to 250 nM |  |  |  |  |  |  | 
CS(=O)(=O)N1CCC(Nc2cc3c(C4=CCOCC4)nccc3cn2)CC1 [Ex 87, 5-(3,6-dihydro-2H-pyran-4-yl)-N-(1-(methylsulfonyl)piperidin-4-yl)-2,6-naphthyridin-3-amine] | < 25 nM | > 250 nM | 25 to 250 nM | 25 to 250 nM |  |  |  |  |  |  | 
CS(=O)(=O)N1CCC(Nc2cc3c(-c4ccc5cc[nH]c5c4)nccc3cn2)CC1 [Ex 89, 5-(1H-indol-6-yl)-N-(1-(methylsulfonyl)piperidin-4-yl)-2,6-naphthyridin-3-amine] | < 25 nM |  |  |  | < 25 nM | 25 to 250 nM | < 25 nM |  |  |  | 
CS(=O)(=O)N1CCC(Nc2cc3c(-c4cc[nH]c4)nccc3cn2)CC1 [Ex 90, N-(1-(methylsulfonyl)piperidin-4-yl)-5-(1H-pyrrol-3-yl)-2,6-naphthyridin-3-amine] | < 25 nM | > 250 nM | 25 to 250 nM | 25 to 250 nM |  |  |  |  |  |  | 
CS(=O)(=O)N1CCC(Nc2cc3c(-c4ccc5c(c4)CC(=O)N5)nccc3cn2)CC1 [Ex 91, 5-(7-((1-(methylsulfonyl)piperidin-4-yl)amino)-2,6-naphthyridin-1-yl)indolin-2-one] | < 25 nM | > 250 nM | 25 to 250 nM | 25 to 250 nM |  |  |  |  |  |  | 
CN(CCO)C(=O)c1nccc2cnc(NC3CCN(S(C)(=O)=O)CC3)cc12 [Ex 96, N-(2-hydroxyethyl)-N-methyl-7-((1-(methylsulfonyl)piperidin-4-yl)amino)-2,6-naphthyridine-1-carboxamide] |  |  | 25 to 250 nM | 25 to 250 nM |  | 25 to 250 nM |  | 25 to 250 nM |  |  | 
Oc1ccc(Nc2cc3c(C4=CCCCC4)nccc3cn2)cc1 [Ex 99, 4-((5-(cyclohex-1-en-1-yl)-2,6-naphthyridin-3-yl)amino)phenol] | < 25 nM |  | 25 to 250 nM |  | < 25 nM | 25 to 250 nM |  |  |  |  | 
Oc1cccc(Nc2cc3c(C4=CCCCC4)nccc3cn2)c1 [Ex 100, 3-((5-(cyclohex-1-en-1-yl)-2,6-naphthyridin-3-yl)amino)phenol] | < 25 nM | > 250 nM | 25 to 250 nM |  | < 25 nM |  |  |  |  |  | 
CS(=O)(=O)N1CCC(Nc2cc3c(C4=CCCCC4)nccc3cn2)CC1 [Ex 102, 5-(cyclohex-1-en-1-yl)-N-(1-(methylsulfonyl)piperidin-4-yl)-2,6-naphthyridin-3-amine] | < 25 nM |  |  |  | < 25 nM | 25 to 250 nM | < 25 nM |  |  |  | 
C=CS(=O)(=O)N1CCC(Nc2cc3c(N4CCC(C5CCN(C)CC5)CC4)nccc3cn2)CC1 [Ex 103, 5-(1'-methyl-[4,4'-bipiperidin]-1-yl)-N-(1-(vinylsulfonyl)piperidin-4-yl)-2,6-naphthyridin-3-amine] |  | > 250 nM | 25 to 250 nM | 25 to 250 nM |  |  |  | 25 to 250 nM |  |  | 
C=CS(=O)(=O)N1CCC(Nc2cc3c(N4CCC(C#N)CC4)nccc3cn2)CC1 [Ex 106, 1-(7-((1-(vinylsulfonyl)piperidin-4-yl)amino)-2,6-naphthyridin-1-yl)piperidine-4-carbonitrile] | < 25 nM |  | 25 to 250 nM | 25 to 250 nM |  | 25 to 250 nM |  |  |  |  | 
C=CS(=O)(=O)N1CCC(Nc2cc3c(-c4ccncc4C)nccc3cn2)CC1 [Ex 107, 5-(3-methylpyridin-4-yl)-N-(1-(vinylsulfonyl)piperidin-4-yl)-2,6-naphthyridin-3-amine] | < 25 nM | > 250 nM | 25 to 250 nM | 25 to 250 nM |  |  |  |  |  |  | 
O=C(ON1C(=O)CCC1=O)c1ccc(Nc2cc3c(C4=CCCCC4)nccc3cn2)cc1 [Ex 113, 2,5-dioxopyrrolidin-1-yl 4-((5-(cyclohex-1-en-1-yl)-2,6-naphthyridin-3-yl)amino)benzoate] | < 25 nM |  | 25 to 250 nM | 25 to 250 nM |  |  |  |  | < 25 nM |  | 
Cc1c(-c2nccc3cnc(NC4CCN(S(C)(=O)=O)CC4)cc23)ccc2[nH]ncc12 [Ex 116, 5-(4-methyl-1H-indazol-5-yl)-N-(1-(methylsulfonyl)piperidin-4-yl)-2,6-naphthyridin-3-amine] | < 25 nM |  |  |  | < 25 nM | 25 to 250 nM | < 25 nM |  |  |  | 
Cc1cc2[nH]ncc2cc1-c1nccc2cnc(NC3CCN(S(C)(=O)=O)CC3)cc12 [Ex 117, 5-(6-methyl-1H-indazol-5-yl)-N-(1-(methylsulfonyl)piperidin-4-yl)-2,6-naphthyridin-3-amine] | < 25 nM |  |  |  | < 25 nM | 25 to 250 nM | < 25 nM |  |  |  | 
C#Cc1nccc2cnc(Nc3ccc(S(C)(=O)=O)cc3)cc12 [Ex 124, 5-ethynyl-N-(4-(methylsulfonyl)phenyl)-2,6-naphthyridin-3-amine] |  | > 250 nM |  |  |  |  |  | 25 to 250 nM |  | > 250 nM | > 250 nM
CS(=O)(=O)c1ccc(Nc2cc3c(C4=CCCCC4)nccc3cn2)cc1 [Ex 127, 5-(cyclohex-1-en-1-yl)-N-(4-(methylsulfonyl)phenyl)-2,6-naphthyridin-3-amine] | < 25 nM |  |  |  | < 25 nM | 25 to 250 nM | < 25 nM |  |  |  | 
CS(=O)(=O)c1ccc(Nc2cc3c(C#Cc4ccc(C#N)cc4)nccc3cn2)cc1 [Ex 129, 4-((7-((4-(methylsulfonyl)phenyl)amino)-2,6-naphthyridin-1-yl)ethynyl)benzonitrile] |  | > 250 nM |  |  |  |  |  | 25 to 250 nM |  | > 250 nM | > 250 nM
CS(=O)(=O)c1ccc(Nc2cc3c(C#CCCO)nccc3cn2)cc1 [Ex 130, 4-(7-((4-(methylsulfonyl)phenyl)amino)-2,6-naphthyridin-1-yl)but-3-yn-1-ol] | < 25 nM |  | 25 to 250 nM | 25 to 250 nM |  | 25 to 250 nM |  |  |  |  | 
C=CS(=O)(=O)c1ccc(Nc2cc3c(-c4ccc(C#N)cc4)nccc3cn2)cc1 [Ex 131, 4-(7-((4-(vinylsulfonyl)phenyl)amino)-2,6-naphthyridin-1-yl)benzonitrile] |  | > 250 nM |  |  |  |  |  | 25 to 250 nM |  | > 250 nM | > 250 nM
C=CS(=O)(=O)c1ccc(Nc2cc3c(-c4cccc(C#N)c4)nccc3cn2)cc1 [Ex 136, 3-(7-((4-(vinylsulfonyl)phenyl)amino)-2,6-naphthyridin-1-yl)benzonitrile] |  | > 250 nM |  |  |  |  |  | 25 to 250 nM |  | > 250 nM | > 250 nM
C=CS(=O)(=O)c1ccc(Nc2cc3c(-c4cccc(COC)c4)nccc3cn2)cc1 [Ex 137, 5-(3-(methoxymethyl)phenyl)-N-(4-(vinylsulfonyl)phenyl)-2,6-naphthyridin-3-amine] |  | > 250 nM |  |  |  |  |  | 25 to 250 nM |  | > 250 nM | > 250 nM
CS(=O)(=O)c1ccc(Nc2cc3c(C#Cc4ccncc4)nccc3cn2)cc1 [Ex 138, N-(4-(methylsulfonyl)phenyl)-5-(pyridin-4-ylethynyl)-2,6-naphthyridin-3-amine] | < 25 nM | > 250 nM | 25 to 250 nM | 25 to 250 nM |  |  |  |  |  |  | 
